Assay in all cases: Invitrogen SelectScreen Enzymatic Assay
Assay [1] deals with Phosphatidylinositol 3-kinase catalytic subunit type 3 (Homo sapiens, UniProt Q8NEB9). As for the experimental part:
(§1) The enzymatic assay was performed using the LifeTechnology SelectScreen.

Assay [2] addresses Phosphatidylinositol 3-kinase regulatory subunit alpha/4,5-bisphosphate 3-kinase catalytic subunit alpha isoform (Homo sapiens, UniProt P42336). As for the experimental part:
as §1

The target in assay [3] is Phosphatidylinositol 3-kinase regulatory subunit alpha/4,5-bisphosphate 3-kinase catalytic subunit delta isoform (Homo sapiens, UniProt O00329). As for the experimental part: as §1
For assay [4], the target named is Phosphatidylinositol 4,5-bisphosphate 3-kinase catalytic subunit gamma isoform (Homo sapiens, UniProt P48736). As for the experimental part: as §1
Assay [5] concerns the target Phosphatidylinositol 4-kinase alpha (Homo sapiens, UniProt P42356). As for the experimental part:
as §1

In assay [6] the target is Phosphatidylinositol 4-kinase beta (Homo sapiens, UniProt Q9UBF8). As for the experimental part: as §1
The target in assay [7] is Phosphatidylinositol 4-phosphate 3-kinase C2 domain-containing subunit alpha (Homo sapiens, UniProt O00443). As for the experimental part:
as §1

Assay [8] concerns the target Phosphatidylinositol 4-phosphate 3-kinase C2 domain-containing subunit beta (Homo sapiens, UniProt O00750). As for the experimental part:
as §1

In assay [9] the target is Serine/threonine-protein kinase 16 (Homo sapiens, UniProt O75716). As for the experimental part: as §1

SMILES strings stand for the structures. Where only a bound is given, the exact number is not on record here.

Phosphatidylinositol 4-kinase alpha, sequence (P42356 whole entry): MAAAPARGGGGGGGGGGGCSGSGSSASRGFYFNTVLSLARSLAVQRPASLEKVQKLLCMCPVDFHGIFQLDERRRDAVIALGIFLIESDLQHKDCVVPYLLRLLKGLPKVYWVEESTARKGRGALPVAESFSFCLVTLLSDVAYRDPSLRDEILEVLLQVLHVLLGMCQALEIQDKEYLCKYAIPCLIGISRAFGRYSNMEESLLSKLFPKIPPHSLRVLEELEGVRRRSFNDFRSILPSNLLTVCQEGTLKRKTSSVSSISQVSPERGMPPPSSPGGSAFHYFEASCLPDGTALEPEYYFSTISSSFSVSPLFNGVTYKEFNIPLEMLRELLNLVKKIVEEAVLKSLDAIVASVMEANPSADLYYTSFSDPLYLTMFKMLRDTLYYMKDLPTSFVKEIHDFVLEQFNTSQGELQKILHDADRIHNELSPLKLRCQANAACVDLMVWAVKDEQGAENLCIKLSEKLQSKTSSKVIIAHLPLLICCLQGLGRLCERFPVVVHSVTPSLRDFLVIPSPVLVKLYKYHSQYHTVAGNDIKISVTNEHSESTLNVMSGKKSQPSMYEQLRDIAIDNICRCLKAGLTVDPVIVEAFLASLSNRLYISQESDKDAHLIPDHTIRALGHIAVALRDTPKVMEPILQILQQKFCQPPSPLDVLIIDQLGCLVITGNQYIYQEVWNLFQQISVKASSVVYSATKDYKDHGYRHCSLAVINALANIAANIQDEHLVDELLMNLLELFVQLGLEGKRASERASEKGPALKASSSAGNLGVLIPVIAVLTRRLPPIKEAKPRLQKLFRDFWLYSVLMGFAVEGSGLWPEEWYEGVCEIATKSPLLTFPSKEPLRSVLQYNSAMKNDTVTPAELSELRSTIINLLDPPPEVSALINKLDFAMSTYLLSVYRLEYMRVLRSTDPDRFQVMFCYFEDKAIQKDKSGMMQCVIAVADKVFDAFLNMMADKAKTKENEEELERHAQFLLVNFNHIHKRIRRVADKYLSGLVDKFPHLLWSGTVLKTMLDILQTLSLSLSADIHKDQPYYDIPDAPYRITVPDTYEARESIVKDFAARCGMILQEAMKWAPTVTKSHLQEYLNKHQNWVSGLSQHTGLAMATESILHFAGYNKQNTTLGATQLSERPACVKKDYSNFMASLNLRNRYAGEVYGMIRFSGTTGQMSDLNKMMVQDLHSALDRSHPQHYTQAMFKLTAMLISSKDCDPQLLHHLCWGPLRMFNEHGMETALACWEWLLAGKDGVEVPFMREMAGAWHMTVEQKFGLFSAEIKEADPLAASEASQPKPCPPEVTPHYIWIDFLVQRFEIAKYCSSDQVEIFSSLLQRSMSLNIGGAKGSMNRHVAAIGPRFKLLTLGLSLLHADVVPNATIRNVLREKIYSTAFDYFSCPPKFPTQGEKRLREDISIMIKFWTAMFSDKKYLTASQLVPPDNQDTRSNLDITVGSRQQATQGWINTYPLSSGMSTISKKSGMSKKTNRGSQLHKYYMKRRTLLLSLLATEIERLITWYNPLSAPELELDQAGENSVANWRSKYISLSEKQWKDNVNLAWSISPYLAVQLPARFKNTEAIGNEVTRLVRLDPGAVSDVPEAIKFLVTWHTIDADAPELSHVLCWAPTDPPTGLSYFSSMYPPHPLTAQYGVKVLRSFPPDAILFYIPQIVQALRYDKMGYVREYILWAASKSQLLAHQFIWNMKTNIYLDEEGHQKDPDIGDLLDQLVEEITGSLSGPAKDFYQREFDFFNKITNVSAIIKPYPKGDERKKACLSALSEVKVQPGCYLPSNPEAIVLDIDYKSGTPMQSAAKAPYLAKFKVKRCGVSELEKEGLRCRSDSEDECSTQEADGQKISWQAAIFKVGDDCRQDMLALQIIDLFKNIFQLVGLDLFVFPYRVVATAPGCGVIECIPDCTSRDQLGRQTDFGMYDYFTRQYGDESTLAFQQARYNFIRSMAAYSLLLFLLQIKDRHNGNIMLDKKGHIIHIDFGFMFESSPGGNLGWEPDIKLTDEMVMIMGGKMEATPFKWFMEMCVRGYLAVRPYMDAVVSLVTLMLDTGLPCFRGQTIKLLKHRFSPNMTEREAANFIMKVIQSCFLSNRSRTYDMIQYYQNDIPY
Phosphatidylinositol 4-phosphate 3-kinase C2 domain-containing subunit beta, sequence (O00750 whole entry, the tested form may be a part): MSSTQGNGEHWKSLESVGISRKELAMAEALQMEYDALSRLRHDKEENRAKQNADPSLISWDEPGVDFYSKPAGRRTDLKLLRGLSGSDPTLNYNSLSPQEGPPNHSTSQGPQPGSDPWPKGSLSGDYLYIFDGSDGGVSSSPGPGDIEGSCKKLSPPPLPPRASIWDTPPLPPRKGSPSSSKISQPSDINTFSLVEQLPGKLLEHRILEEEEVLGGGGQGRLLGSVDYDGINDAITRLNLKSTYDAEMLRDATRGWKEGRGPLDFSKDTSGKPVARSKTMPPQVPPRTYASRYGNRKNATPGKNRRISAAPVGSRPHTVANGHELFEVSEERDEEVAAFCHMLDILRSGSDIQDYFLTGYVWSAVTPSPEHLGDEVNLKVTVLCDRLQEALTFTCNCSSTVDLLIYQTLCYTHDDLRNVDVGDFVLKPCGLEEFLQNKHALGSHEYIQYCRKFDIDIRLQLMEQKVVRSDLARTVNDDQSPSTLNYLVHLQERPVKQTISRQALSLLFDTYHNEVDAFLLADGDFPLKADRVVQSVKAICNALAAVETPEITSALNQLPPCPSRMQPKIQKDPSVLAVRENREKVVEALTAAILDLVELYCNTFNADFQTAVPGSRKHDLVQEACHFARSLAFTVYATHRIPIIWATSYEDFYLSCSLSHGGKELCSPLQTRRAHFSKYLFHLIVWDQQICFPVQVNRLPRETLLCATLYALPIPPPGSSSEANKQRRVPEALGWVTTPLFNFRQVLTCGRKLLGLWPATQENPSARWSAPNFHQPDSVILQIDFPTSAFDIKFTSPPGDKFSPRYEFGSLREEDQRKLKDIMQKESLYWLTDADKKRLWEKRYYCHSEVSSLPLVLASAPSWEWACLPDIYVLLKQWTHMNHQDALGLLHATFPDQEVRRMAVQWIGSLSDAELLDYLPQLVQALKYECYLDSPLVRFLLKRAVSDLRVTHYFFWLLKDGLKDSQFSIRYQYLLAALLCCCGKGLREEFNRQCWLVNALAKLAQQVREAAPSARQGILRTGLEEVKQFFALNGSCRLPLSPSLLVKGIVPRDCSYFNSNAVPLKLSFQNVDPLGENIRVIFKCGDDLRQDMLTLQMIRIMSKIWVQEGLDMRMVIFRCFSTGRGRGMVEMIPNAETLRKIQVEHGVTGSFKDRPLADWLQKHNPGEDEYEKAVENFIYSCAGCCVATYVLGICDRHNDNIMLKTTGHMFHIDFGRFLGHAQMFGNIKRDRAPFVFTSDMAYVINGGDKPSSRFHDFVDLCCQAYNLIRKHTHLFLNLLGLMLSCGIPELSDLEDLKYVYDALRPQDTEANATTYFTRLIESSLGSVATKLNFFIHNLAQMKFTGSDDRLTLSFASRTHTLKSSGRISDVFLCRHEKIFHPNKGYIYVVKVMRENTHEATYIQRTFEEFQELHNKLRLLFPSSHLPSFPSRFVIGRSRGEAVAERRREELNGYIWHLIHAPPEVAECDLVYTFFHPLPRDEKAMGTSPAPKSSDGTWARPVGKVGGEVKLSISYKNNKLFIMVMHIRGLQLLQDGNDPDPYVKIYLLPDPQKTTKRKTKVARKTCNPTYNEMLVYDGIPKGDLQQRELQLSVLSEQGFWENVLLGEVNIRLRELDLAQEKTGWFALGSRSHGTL
Phosphatidylinositol 4,5-bisphosphate 3-kinase catalytic subunit gamma isoform, sequence (P48736 whole entry, canonical isoform): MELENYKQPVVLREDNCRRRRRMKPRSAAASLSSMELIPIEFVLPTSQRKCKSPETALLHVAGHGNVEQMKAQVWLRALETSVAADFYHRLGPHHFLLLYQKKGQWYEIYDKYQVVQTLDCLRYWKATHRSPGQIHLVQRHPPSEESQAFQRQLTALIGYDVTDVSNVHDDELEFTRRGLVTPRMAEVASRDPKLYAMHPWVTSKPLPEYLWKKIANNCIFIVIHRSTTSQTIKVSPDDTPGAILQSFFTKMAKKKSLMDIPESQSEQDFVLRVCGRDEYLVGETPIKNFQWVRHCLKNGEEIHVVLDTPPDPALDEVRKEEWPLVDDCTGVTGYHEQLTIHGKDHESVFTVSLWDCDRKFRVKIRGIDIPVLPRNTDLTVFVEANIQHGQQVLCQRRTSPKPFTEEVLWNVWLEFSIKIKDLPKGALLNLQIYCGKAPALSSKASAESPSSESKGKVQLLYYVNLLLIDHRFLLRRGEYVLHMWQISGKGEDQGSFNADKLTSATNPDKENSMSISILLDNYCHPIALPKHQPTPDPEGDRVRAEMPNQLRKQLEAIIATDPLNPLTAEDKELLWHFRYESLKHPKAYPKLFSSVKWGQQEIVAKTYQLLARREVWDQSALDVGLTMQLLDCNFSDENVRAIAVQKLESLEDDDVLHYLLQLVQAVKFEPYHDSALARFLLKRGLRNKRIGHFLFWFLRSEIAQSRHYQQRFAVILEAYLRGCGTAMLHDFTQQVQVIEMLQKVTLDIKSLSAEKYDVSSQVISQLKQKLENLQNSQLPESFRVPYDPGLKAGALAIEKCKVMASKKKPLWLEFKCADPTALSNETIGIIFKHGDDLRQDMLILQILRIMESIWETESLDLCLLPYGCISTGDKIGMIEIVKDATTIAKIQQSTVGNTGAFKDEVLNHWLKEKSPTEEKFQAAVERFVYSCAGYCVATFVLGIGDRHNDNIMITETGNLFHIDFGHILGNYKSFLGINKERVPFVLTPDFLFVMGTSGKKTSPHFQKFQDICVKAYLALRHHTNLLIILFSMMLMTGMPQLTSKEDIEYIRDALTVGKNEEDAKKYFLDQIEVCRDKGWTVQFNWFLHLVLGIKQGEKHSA
Serine/threonine-protein kinase 16, sequence (O75716 whole entry): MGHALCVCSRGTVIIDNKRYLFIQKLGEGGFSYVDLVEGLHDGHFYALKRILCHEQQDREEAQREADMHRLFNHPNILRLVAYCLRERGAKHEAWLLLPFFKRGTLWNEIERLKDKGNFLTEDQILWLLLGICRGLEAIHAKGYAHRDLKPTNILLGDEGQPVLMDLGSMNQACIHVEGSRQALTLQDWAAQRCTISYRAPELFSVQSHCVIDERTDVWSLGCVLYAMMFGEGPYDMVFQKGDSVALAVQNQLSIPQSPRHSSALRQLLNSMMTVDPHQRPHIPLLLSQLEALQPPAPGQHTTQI

For orientation: IC50 means the midpoint of a concentration-inhibition curve. For the compound `O=c1ccc2cnc3[nH]ccc3c2n1-c1ccc(F)c(O)c1` [STK16-IN-1], the IC50 is 7.94 µM in assay [1]; 1.07 µM in assay [2]; 0.856 µM in [3]; 0.867 µM in assay [4]; greater than 10 µM in assay [5]; greater than 10 µM in assay [6]. The half-maximal inhibitory concentration (IC50) in assay [7] was determined as 4.86 µM; in assay [8] it was 9.33 µM; in [9], 0.295 µM.
